The text below walks through data of patent publication US8729082B2, “Substituted imidazoquinoxalines” (Bayer Intellectual Property GmbH, priority 2009, dated 2014).

Broadly, the IC50 is the midpoint of a concentration-inhibition curve.

This experiment concerns the target T1, human kinase Mps-1 (Homo sapiens, UniProt P33981).
T1 construct: N-terminally GST-tagged human full length recombinant Mps-1 kinase; purchased Invitrogen, Karslruhe, Germany PV4071
T1 sequence (P33981 1-857): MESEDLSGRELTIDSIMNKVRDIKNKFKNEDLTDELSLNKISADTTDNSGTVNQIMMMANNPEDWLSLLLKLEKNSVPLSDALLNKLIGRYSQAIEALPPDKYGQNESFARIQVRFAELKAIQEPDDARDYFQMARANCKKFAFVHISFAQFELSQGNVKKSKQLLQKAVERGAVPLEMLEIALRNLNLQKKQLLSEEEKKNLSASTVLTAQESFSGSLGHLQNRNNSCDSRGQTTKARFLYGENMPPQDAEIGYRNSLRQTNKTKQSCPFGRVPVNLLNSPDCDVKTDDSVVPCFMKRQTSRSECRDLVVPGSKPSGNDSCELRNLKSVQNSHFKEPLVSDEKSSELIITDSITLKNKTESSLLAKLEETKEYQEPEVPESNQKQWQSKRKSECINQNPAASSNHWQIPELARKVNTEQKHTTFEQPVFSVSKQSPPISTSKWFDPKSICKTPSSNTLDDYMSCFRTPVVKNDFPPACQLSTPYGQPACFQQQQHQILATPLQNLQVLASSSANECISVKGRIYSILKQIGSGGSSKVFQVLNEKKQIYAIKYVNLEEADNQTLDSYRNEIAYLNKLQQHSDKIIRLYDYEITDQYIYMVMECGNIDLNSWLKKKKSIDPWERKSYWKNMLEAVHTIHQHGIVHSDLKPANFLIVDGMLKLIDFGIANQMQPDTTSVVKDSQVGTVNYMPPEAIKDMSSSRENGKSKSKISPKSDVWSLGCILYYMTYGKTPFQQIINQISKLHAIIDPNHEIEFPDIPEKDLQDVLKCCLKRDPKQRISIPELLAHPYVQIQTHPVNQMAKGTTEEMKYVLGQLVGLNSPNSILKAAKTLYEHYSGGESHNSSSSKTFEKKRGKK
Description: Mps-1 kinase assay (HTRF). Type of experiment: biochemical. The note with it: lowATP; mean; read-out: Mps1 lowATP mean IC50. The procedure: The human kinase Mps-1 phosphorylates a biotinylated substrate peptide. Detection of the phosphorylated product is achieved by homogenous time-resolved fluorescence resonance energy transfer (HTRF) from Europium-labelled anti-phospho-Serine/Threonine antibody as donor to streptavidin labelled with cross-linked allophycocyanin (SA-XLent) as acceptor. Compounds are tested for their inhibition of the kinase activity.
N-terminally GST-tagged human full length recombinant Mps-1 kinase (purchased from Invitrogen, Karslruhe, Germany, cat. no PV4071) was used. As substrate for the kinase reaction a biotinylated peptide of the amino-acid sequence PWDPDDADITEILG (C-terminus in amide form, purchased from Biosynthan GmbH, Berlin) was used.
For the assay 50 nl of a 100-fold concentrated solution of the test compound in DMSO was pipetted into a black low volume 384 well microtiter plate (Greiner Bio-One, Frickenhausen, Germany), 2 μl of a solution of Mps-1 in assay buffer [0.1 mM sodium-ortho-vanadate, 10 mM MgCl2, 2 mM DTT, 25 mM Hepes pH 7.7, 0.05% BSA, 0.001% Pluronic F-127] were added and the mixture was incubated for 15 min at 22° C. to allow pre-binding of the test compounds to Mps-1 before the start of the kinase reaction. Then the kinase reaction was started by the addition of 3 μl of a solution of 16.7 μM ATP and 1.67 μM peptide in assay buffer and the resulting mixture was incubated for a reaction time of 60 min at 22° C. The concentration of Mps-1 in the assay was adjusted to the activity of the enzyme lot and was chosen appropriate to have the assay in the linear range, typical enzyme concentrations were in the range of about 1 nM (final conc. in the 5 μl assay volume). The reaction was stopped by the addition of 3 μl of a solution of HTRF detection reagents (100 mM Hepes pH 7.4, 0.1% BSA, 40 mM EDTA, 140 nM Streptavidin-XLent [#61GSTXLB, Fa. Cis Biointernational, Marcoule, France], 1.5 nM anti-phospho(Ser/Thr)-Europium-antibody [#AD0180, PerkinElmer LAS, Rodgau-Jügesheim, Germany].
The resulting mixture was incubated 1 h at 22° C. to allow the binding of the phosphorylated peptide to the anti-phospho(Ser/Thr)-Europium-antibody. Subsequently the amount of phosphorylated substrate was evaluated by measurement of the resonance energy transfer from the Europium-labelled anti-phospho(Ser/Thr) antibody to the Streptavidin-XLent. Therefore, the fluorescence emissions at 620 nm and 665 nm after excitation at 350 nm was measured in a HTRF reader, e.g. a Rubystar (BMG Labtechnologies, Offenburg, Germany) or a Viewlux (PerkinElmer LAS, Rodgau-Jügesheim, Germany). The ratio of the emissions at 665 nm and at […] was taken as the measure for the amount of phosphorylated substrate. The data were normalised (enzyme reaction without inhibitor=0% inhibition, all other assay components but no enzyme=100% inhibition).
(In general: TR-FRET usually uses a lanthanide donor and a delayed reading to cut background.)
For the compound `Cc1cccc(CNc2nc3ccccc3n3c(-c4ccc(C(=O)NC5CC5)cc4)cnc23)c1` [Example 2-4, N-cyclopropyl-4-{4-[(3-methylbenzyl)amino]imidazo[1,2-a]quinoxalin-1-yl}benzamide], the IC50 was 132 nM.

As for `O=C(NC1CC1)c1ccc(-c2cnc3c(NCc4cccc(F)c4)nc4ccccc4n23)cc1` [Example 2-5, N-cyclopropyl-4-{4-[(3-fluorobenzyl)amino]imidazo[1,2-a]quinoxalin-1-yl}benzamide], the IC50 was 90 nM.

In the case of `Cc1ccccc1CNc1nc2ccccc2n2c(-c3ccc(C(=O)NC4CC4)cc3)cnc12` [Example 2-6, N-cyclopropyl-4-{4-[(2-methylbenzyl)amino]imidazo[1,2-a]quinoxalin-1-yl}benzamide], the IC50 came out at 232 nM.

Regarding `O=C(NC1CC1)c1ccc(-c2cnc3c(NCc4cccc(Cl)c4)nc4ccccc4n23)cc1` [Example 2-7, 4-{4-[(3-chlorobenzyl)amino]imidazo[1,2-a]quinoxalin-1-yl}-N-cyclopropylbenzamide], the IC50 was 222 nM.

For the compound `O=C(NC1CC1)c1ccc(-c2cnc3c(NCCc4ccccc4)nc4ccccc4n23)cc1` [Example 2-8, N-cyclopropyl-4-{4-[(2-phenylethyl)amino]imidazo[1,2-a]quinoxalin-1-yl}benzamide], the IC50 was determined as 169 nM.

Consider `O=C(NC1CC1)c1ccc(-c2cnc3c(Nc4ccccc4)nc4ccccc4n23)cc1` [Example 2-9, N-cyclopropyl-4-[4-(phenylamino)imidazo[1,2-a]quinoxalin-1-yl]benzamide], for which the IC50 came out at 545 nM.

Turning to `CCCCCNc1nc2ccccc2n2c(-c3ccc(C(=O)NC4CC4)cc3)cnc12` [Example 2-10, N-cyclopropyl-4-[4-(pentylamino)imidazo[1,2-a]quinoxalin-1-yl]benzamide], the IC50 amounted to 92.4 nM.

With `O=C(NC1CC1)c1ccc(-c2cnc3c(NCCCN4CCCC4=O)nc4ccccc4n23)cc1` [Example 2-11, N-cyclopropyl-4-(4-{[3-(2-oxopyrrolidin-1-yl)propyl]amino}imidazo[1,2-a]quinoxalin-1-yl)benzamide], the IC50 amounted to 296 nM.

Take `COCCNc1nc2ccccc2n2c(-c3ccc(C(=O)NC4CC4)cc3)cnc12` [Example 2-12, N-cyclopropyl-4-{4-[(2-methoxyethyl)amino]imidazo[1,2-a]quinoxalin-1-yl}benzamide]: the IC50 was 180 nM.

As to `COc1ccccc1CNc1nc2ccccc2n2c(-c3ccc(C(=O)NC4CC4)cc3)cnc12` [Example 2-13, N-cyclopropyl-4-{4-[(2-methoxybenzyl)amino]imidazo[1,2-a]quinoxalin-1-yl}benzamide], the IC50 came out at 334 nM.

Regarding `O=C(NC1CC1)c1ccc(-c2cnc3c(NCc4ccccc4F)nc4ccccc4n23)cc1` [Example 2-14, N-cyclopropyl-4-{4-[(2-fluorobenzyl)amino]imidazo[1,2-a]quinoxalin-1-yl}benzamide], the IC50 turned out to be 72.1 nM.

Turning to `O=C(NC1CC1)c1ccc(-c2cnc3c(NCc4ccc(F)cc4)nc4ccccc4n23)cc1` [Example 2-15, N-cyclopropyl-4-{4-[(4-fluorobenzyl)amino]imidazo[1,2-a]quinoxalin-1-yl}benzamide], the IC50 is 56.3 nM.

On to `O=C(NC1CC1)c1ccc(-c2cnc3c(NCc4ccccc4)nc4ccccc4n23)cc1` [Example 2-16, 4-[4-(benzylamino)imidazo[1,2-a]quinoxalin-1-yl]-N-cyclopropylbenzamide], for which the IC50 turned out to be 67.5 nM.

Take `COc1ccc(CCNc2nc3ccccc3n3c(-c4ccc(C(=O)NC5CC5)cc4)cnc23)cc1` [Example 2-17, N-cyclopropyl-4-(4-{[2-(4-methoxyphenyl)ethyl]amino}imidazo[1,2-a]quinoxalin-1-yl)benzamide]: the IC50 turned out to be 565 nM.

With `O=C(NC1CC1)c1ccc(-c2cnc3c(NCc4cccs4)nc4ccccc4n23)cc1` [Example 2-18, N-cyclopropyl-4-{4-[(thiophen-2-ylmethyl)amino]imidazo[1,2-a]quinoxalin-1-yl}benzamide], the IC50 worked out at 46.6 nM.

In the case of `CCNc1nc2ccccc2n2c(-c3ccc(C(=O)NC4CC4)cc3)cnc12` [Example 2-19, N-cyclopropyl-4-[4-(ethylamino)imidazo[1,2-a]quinoxalin-1-yl]benzamide], the IC50 came to 94 nM.

For `CN(C)CCCNc1nc2ccccc2n2c(-c3ccc(C(=O)NC4CC4)cc3)cnc12` [Example 2-20, N-cyclopropyl-4-(4-{[3-(dimethylamino)propyl]amino}imidazo[1,2-a]quinoxalin-1-yl)benzamide], the IC50 stood at 744 nM.

On to `NS(=O)(=O)c1ccc(CCNc2nc3ccccc3n3c(-c4ccc(C(=O)NC5CC5)cc4)cnc23)cc1` [Example 2-21, N-cyclopropyl-4-(4-{[2-(4-sulfamoylphenyl)ethyl]amino}imidazo[1,2-a]quinoxalin-1-yl)benzamide], for which the IC50 worked out at 48.1 nM.

As to `O=C(NC1CC1)c1ccc(-c2cnc3c(NCCc4cccc(F)c4)nc4ccccc4n23)cc1` [Example 2-22, N-cyclopropyl-4-(4-{[2-(3-fluorophenyl)ethyl]amino}imidazo[1,2-a]quinoxalin-1-yl)benzamide], the IC50 turned out to be 312 nM.

On to `O=C(NC1CC1)c1ccc(-c2cnc3c(NCC4CC4)nc4ccccc4n23)cc1` [Example 2-23, N-cyclopropyl-4-{4-[(cyclopropylmethyl)amino]imidazo[1,2-a]quinoxalin-1-yl}benzamide], for which the IC50 was 24.1 nM.

`O=C(NC1CC1)c1ccc(-c2cnc3c(NCCN4CCOCC4)nc4ccccc4n23)cc1` [Example 2-24, N-cyclopropyl-4-(4-{[2-(morpholin-4-yl)ethyl]amino}imidazo[1,2-a]quinoxalin-1-yl)benzamide]: the IC50 is 127 nM.

For the compound `NS(=O)(=O)c1ccc(CNc2nc3ccccc3n3c(-c4ccc(C(=O)NC5CC5)cc4)cnc23)cc1` [Example 2-25, N-cyclopropyl-4-{4-[(4-sulfamoylbenzyl)amino]imidazo[1,2-a]quinoxalin-1-yl}benzamide], the IC50 amounted to 160 nM.

Take `O=C(NC1CC1)c1ccc(-c2cnc3c(NCc4cccnc4)nc4ccccc4n23)cc1` [Example 2-26, N-cyclopropyl-4-{4-[(pyridin-3-ylmethyl)amino]imidazo[1,2-a]quinoxalin-1-yl}benzamide]: the IC50 is 99.6 nM.

As for `O=C(NC1CC1)c1ccc(-c2cnc3c(NCCCc4ccccc4)nc4ccccc4n23)cc1` [Example 2-27, N-cyclopropyl-4-{4-[(3-phenylpropyl)amino]imidazo[1,2-a]quinoxalin-1-yl}benzamide], the IC50 worked out at 282 nM.

With `O=C(NC1CC1)c1ccc(-c2cnc3c(NCc4ccc5c(c4)OCO5)nc4ccccc4n23)cc1` [Example 2-28, 4-{4-[(1,3-benzodioxol-5-ylmethyl)amino]imidazo[1,2-a]quinoxalin-1-yl}-N-cyclopropylbenzamide], the IC50 came to 61.4 nM.
